Data on 47 compounds can be found in paper PMC5681660, “Reduced hepatitis B and D viral entry using clinically applied drugs as novel inhibitors of the bile acid transporter NTCP” (Scientific Reports, 2017).

This assay concerns the target T1, human NTCP (Homo sapiens, UniProt Q14973).
T1 sequence (Q14973 1-349): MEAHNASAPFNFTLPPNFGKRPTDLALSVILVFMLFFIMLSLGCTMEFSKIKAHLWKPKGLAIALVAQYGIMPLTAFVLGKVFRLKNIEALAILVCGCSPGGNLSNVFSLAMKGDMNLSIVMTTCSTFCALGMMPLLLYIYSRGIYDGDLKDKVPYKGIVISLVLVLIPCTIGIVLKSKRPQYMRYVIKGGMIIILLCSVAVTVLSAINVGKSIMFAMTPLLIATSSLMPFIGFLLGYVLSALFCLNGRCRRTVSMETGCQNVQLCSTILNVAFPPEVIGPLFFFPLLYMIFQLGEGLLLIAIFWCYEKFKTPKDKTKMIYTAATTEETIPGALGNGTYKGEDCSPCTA
Briefly: Screening taurocholate uptake assay (96-well, [14C]taurocholate, 10 µM drug). As to conditions: for B-score functional assay: screening taurocholate uptake, 10 µM drug.

[1] abbreviates: combined ranking of functional and binding screening assays.
[2] abbreviates: ranking over the functional and the binding screening assay.

Structures can show the parent of a compound that is named as a salt.

For `CC(C)NCC(O)c1cc(O)cc(O)c1.CC(C)NCC(O)c1cc(O)cc(O)c1.O=S(=O)(O)O` (stereo not shown), the B-score functional assay is given as 0.057. The Ranking score under setting [1] is 489.878.

As for `CCCCCCC[N+](CC)(CC)CCCCc1ccc(Cl)cc1.Cc1ccc(S(=O)(=O)[O-])cc1` [Clofilium tosylate], the B-score functional assay was -2.506. Besides, the Ranking score under setting [2] came out at 143.363.

The compound `CC(C)(O)c1ccccc1CC[C@@H](SCC1(CC(=O)O)CC1)c1cccc(/C=C/c2ccc3ccc(Cl)cc3n2)c1` [Montelukast] had a B-score functional assay of -3.762. Under setting [2], this compound showed a Ranking score of 55.3173.

As for `CCOC(=O)Nc1ccc2c(c1)N(C(=O)CCN1CCOCC1)c1ccccc1S2` [Moricizine hydrochloride], the Ranking score under setting [1] was found to be 1215.96. In addition, under “B-score”, the B-score functional assay amounted to 2.078.

Take `CC1Cc2ccccc2N1NC(=O)c1ccc(Cl)c(S(N)(=O)=O)c1` (stereo not shown) [Indapamide]: the B-score functional assay is recorded as -0.108. Further, the Ranking score under setting [1] is recorded as 559.557.

For `NC(=O)OCC(COC(N)=O)c1ccccc1` [Felbamate], the B-score functional assay is 0.213. Also, the Ranking score under setting [1] is 558.78.

`CS(=O)(=O)c1ccc([C@@H](O)[C@@H](CF)NC(=O)C(Cl)Cl)cc1` [Florfenicol] yielded a B-score functional assay of -0.913. The compound also displayed a Ranking score under setting [2] of 235.125.

For the compound `Cc1cccc(CN2CCN(C(c3ccccc3)c3ccc(Cl)cc3)CC2)c1.Cl.Cl` (stereo not shown) [Meclozine dihydrochloride], the B-score functional assay is -1.455. In addition, the Ranking score under setting [1] is 482.469.

With `C[N+]1(C)CCC(=C(c2ccccc2)c2ccccc2)CC1` [Diphemanil methylsulfate], under setting [1], the Ranking score stood at 1220.85. The compound also came in with a B-score functional assay (B-score) of 2.82.

`O=C([O-])c1ccccc1-c1c2cc(Br)c(=O)cc-2oc2[c]([Hg+])c([O-])c(Br)cc12.[Na+].[Na+].[OH-]` [Merbromin] had a B-score functional assay of -0.374. In addition, under setting [2], the Ranking score was found to be 82.365.

For the compound `CC[C@H]1OC(=O)[C@H](C)[C@@H](O[C@H]2C[C@@](C)(OC)[C@@H](O)[C@H](C)O2)[C@H](C)[C@@H](O[C@@H]2O[C@H](C)C[C@H](N(C)C)[C@H]2O)[C@](C)(O)C[C@@H](C)/C(=N\OCOCCOC)[C@H](C)[C@@H](O)[C@]1(C)O` [Roxithromycin], the B-score functional assay turned out to be 1.396. Under setting [2], this compound showed a Ranking score of 275.763.

On to `CC(C)(Oc1ccc(C2CC2(Cl)Cl)cc1)C(=O)O` (stereo not shown) [Ciprofibrate], for which the B-score functional assay worked out at 0.025. In addition, under setting [1], the Ranking score was determined as 539.316.

Consider `CCN(C)C(=O)Oc1cccc([C@H](C)N(C)C)c1` [Rivastigmine], for which the B-score functional assay is reported as -0.006. In addition, under setting [1], the Ranking score was 642.937.

Take `COc1ccc(CCN)cc1OC` [Homoveratrylamine]: the B-score functional assay is on record as 0.521. Besides, the Ranking score under setting [1] came to 500.783.

Consider `N[C@@H](C(=O)N[C@@H]1C(=O)N2C(C(=O)O)=C(Cl)CC[C@H]12)c1ccccc1` [Loracarbef], for which the B-score functional assay is reported as -0.686. In addition, under setting [1], the Ranking score stood at 611.882.

With `CN1CCN2c3ncccc3Cc3ccccc3C2C1` (stereo not shown) [Mirtazapine], the B-score functional assay turned out to be 0.174. Further, under setting [1], the Ranking score came to 576.426.

Compound `Oc1ccc(C2CNCCc3c2cc(O)c(O)c3Cl)cc1` (stereo not shown) [Fenoldopam] registered a B-score functional assay of 0.056. This compound also yielded a Ranking score under setting [2] of 222.621.

With `CC[N+](CC)(CC)CCOc1cccc(OCC[N+](CC)(CC)CC)c1OCC[N+](CC)(CC)CC` [Gallamine triethiodide], the B-score functional assay is recorded as 3.679. In addition, the Ranking score under setting [1] was 565.721.

Compound `N=C(N)c1ccc(OCCCCCOc2ccc(C(=N)N)cc2)cc1` [Pentamidine isethionate] had a B-score functional assay of -0.233. The Ranking score under setting [1] is listed as 489.028.

For the compound `CC1=C(/C=C/C(C)=C/C=C/C(C)=C\C(=O)O)C(C)(C)CCC1` [Isotretinoin], the B-score functional assay is given as -0.503. The same compound returned a Ranking score under setting [2] of 204.751.

Regarding `N[C@@H](Cc1ccc(O)c(O)c1)C(=O)O` [Levodopa], the B-score functional assay is recorded as 0.049. Under setting [2], this compound displayed a Ranking score of 265.141.

Regarding `NCc1ccccc1CC(=O)N[C@@H]1C(=O)N2C(C(=O)O)=C(CSc3nnnn3CC(=O)O)CS[C@H]12` [Ceforanide], the Ranking score under setting [1] is 1237.77. The compound further gave a B-score functional assay (B-score) of 3.778.

On to `COc1ccc(/C=C/C(=O)Nc2ccccc2C(=O)O)cc1OC` [Tranilast], for which the B-score functional assay is recorded as -4.178. Under setting [2], this compound registered a Ranking score of 106.883.

Consider `Cn1c(=O)c2[nH]cnc2n(C)c1=O` [Aminophylline], for which the B-score functional assay is reported as -0.16. Further, under setting [1], the Ranking score was determined as 601.379.

Take `Cc1ncc([N+](=O)[O-])n1CC(C)O` (stereo not shown) [Secnidazole]: the B-score functional assay is given as -0.391. Under setting [1], the Ranking score was 548.521.

In the case of `Nc1c2ccccc2nc2ccccc12` [Aminacrine], the B-score functional assay is -0.079. Besides, under setting [1], the Ranking score was 608.609.

In turn, `CC(=O)OCC(=O)[C@@]1(O)CC[C@H]2[C@@H]3CCC4=CC(=O)C=C[C@]4(C)[C@@]3(F)[C@@H](O)C[C@@]21C` [Isoflupredone acetate] came in with a B-score functional assay of 1.125. For the same compound, the Ranking score under setting [1] was found to be 486.111.

Compound `Cc1onc(-c2ccccc2Cl)c1C(=O)N[C@@H]1C(=O)N2[C@@H]1SC(C)(C)[C@@H]2C(=O)[O-].[Na+]` [Cloxacillin sodium salt] came in with a B-score functional assay of 0.027. Also, under setting [2], the Ranking score came out at 243.228.

Turning to `CCOC(=O)OC(C)OC(=O)[C@@H]1N2C(=O)[C@@H](NC(=O)[C@H](N)c3ccccc3)[C@H]2SC1(C)C` (stereo partly shown) [Bacampicillin hydrochloride], the B-score functional assay is -0.626. The Ranking score under setting [1] stood at 500.635.

With `Nc1nc(NC2CC2)c2ncn([C@H]3C=C[C@@H](CO)C3)c2n1` [Abacavir Sulfate], the Ranking score under setting [1] was 1184.97. The compound further returned a B-score functional assay (B-score) of 2.371.

Take `CC(C(=O)O)c1ccc(-c2ccccc2)c(F)c1` (stereo not shown) [Flurbiprofen]: the B-score functional assay is on record as -0.613. For the same compound, under setting [1], the Ranking score stood at 612.059.

For `C[C@H](CCC(=O)O)[C@H]1CC[C@H]2[C@@H]3[C@@H](O)C[C@@H]4C[C@H](O)CC[C@]4(C)[C@H]3CC[C@]12C` [Urosiol], the B-score functional assay is given as -4.542. Also, the Ranking score under setting [2] worked out at 126.965.

Compound `CCN(CC)CCOC(=O)C(c1ccccc1)C1CCCCC1` (stereo not shown) [Drofenine hydrochloride] registered a B-score functional assay of -0.177. Further, the Ranking score under setting [1] amounted to 532.5.

For `Nc1ccccc1S(N)(=O)=O` [2-Aminobenzenesulfonamide], the B-score functional assay is listed as -0.592. Under setting [1], the Ranking score came out at 626.378.

The compound `CC(=O)NC1CCSC1=O` (racemic) [N-Acetyl-DL-homocysteine Thiolactone] gave a B-score functional assay of 0.096. Further, the Ranking score under setting [1] came to 563.625.

`Nc1cc(N2CCCCC2)nc(N)[n+]1[O-]` [Minoxidil] displayed a B-score functional assay of -3.894. This compound came in with a Ranking score under setting [2] of 87.241.

The compound `CC(C)NC[C@H](O)COc1cccc2ccccc12` [(S)-propranolol hydrochloride] came in with a B-score functional assay of -0.168. Moreover, the Ranking score under setting [1] is reported as 599.166.

For `CC(=O)O[C@@]12CO[C@@H]1C[C@H](O)[C@@]1(C)C(=O)[C@H](O)C3=C(C)[C@@H](OC(=O)[C@H](O)[C@@H](NC(=O)OC(C)(C)C)c4ccccc4)C[C@@](O)([C@@H](OC(=O)c4ccccc4)[C@H]21)C3(C)C` [Docetaxel], the B-score functional assay is -5.513. Besides, the Ranking score under setting [2] was 106.066.

In turn, `CNC[C@H](O)[C@@H](O)[C@H](O)[C@H](O)CO` [Meglumine] yielded a B-score functional assay of -3.271. Also, under setting [2], the Ranking score turned out to be 72.6498.

For `O=C(NCCO[N+](=O)[O-])c1cccnc1` [Nicorandil], under setting [1], the Ranking score worked out at 1149.4. The compound also displayed a B-score functional assay (B-score) of 0.976.

In turn, `Cn1c(NCCN(CCO)CCCc2ccc([N+](=O)[O-])cc2)cc(=O)n(C)c1=O` [Nifekalant] came in with a B-score functional assay of 0.451. The Ranking score under setting [1] was found to be 503.354.

For `CN(C)[C@@H]1C(O)=C(C(=O)NCNCCCC[C@H](N)C(=O)O)C(=O)[C@@]2(O)C(O)=C3C(=O)c4c(O)cccc4[C@@](C)(O)[C@H]3C[C@@H]12` [Lymecycline], the B-score functional assay was 0.716. Also, the Ranking score under setting [1] was 591.633.

`Cc1cc(O)c(C(=O)N[C@@H](C(=O)N[C@@H]2C(=O)N3C(C(=O)O)=C(CSc4nnnn4C)CS[C@H]23)c2ccc(O)cc2)cn1` [Cefpiramide] gave a B-score functional assay of -1.403. The compound also registered a Ranking score under setting [2] of 261.897.

Regarding `COc1ccccc1OCC(O)CN1CCN(CC(=O)Nc2c(C)cccc2C)CC1` (stereo not shown) [Ranolazine], the B-score functional assay came to 1.748. Also, the Ranking score under setting [1] turned out to be 603.017.

Take `Oc1ccc(OCc2ccccc2)cc1` [Monobenzone]: the B-score functional assay is -0.057. Also, the Ranking score under setting [1] was determined as 560.227.

The compound `O=c1c2ccccc2[se]n1-c1ccccc1` [Ebselen] had a B-score functional assay of -4.734. Under setting [2], this compound came in with a Ranking score of 12.2474.

As for `[H]/N=C(\N/C(=N/[H])NCCCCCCNC(=N)NC(=N)Nc1ccc(Cl)cc1)Nc1ccc(Cl)cc1` [Chlorhexidine], the B-score functional assay is given as 0.062. This compound also had a Ranking score under setting [2] of 185.515.
